In patent US7576094B2, “Spiro derivatives as lipoxygenase inhibitors” (Eli Lilly and Company, priority 2004, dated 2009):

How the values were obtained:
[1] = system: release of the leukotriene LTB4 from a neutrophil cell line (MPRO cell line); experiment: LTB4-Cell Assay; format: cell-based; settings: Mus musculus, 1 h, read-out: inhibition of LTB4 with an EC50
Source text: • This procedure was used for measuring the release of the leukotriene LTB4 from a neutrophil cell line using a competitive ELISA technique. Materials and Equipments Materials for Cell Preparation and Experiment • MPRO cell line (ATCC, Catalog # CRL-11422) • Calcium ionophore (A23187) (Sigma, Catalog # C7522) • Nordihydroguaiaretic acid (NDGA) (BioMol ,Catalog # EI101-0001) • Retinoic Acid (all-trans) (ATRA) (Sigma, Catalog # 95152) • Sterile, tissue-culture treated 96-well plates (Corning, Catalog # 3614) Materials for LTB4 ELISA • Precoated (Mouse Anti-Rabbit IgG) EIA 96 Well Strip Plates (Cayman, Catalog # 400004) • Leukotriene B4 AChE Tracer (Cayman Catalog # 420110) • Leukotriene B4 EIA Antiserum (Cayman Catalog # 420112) • Ellman's Reagent (Cayman Catalog # 400050) • EIA Buffer Concentrate (10×) (Cayman Catalog # 400060) • Wash Buffer Concentrate (400×) (Cayman Catalog # 400062) • Plastic plate covers (Cayman Catalog # 400012) Procedure
A mouse promyelocytic cell line (MPRO) was used in this assay. These cells are committed immature neutrophils that can be differentiated into mature neutrophils by treatment with 10 μM all-trans retinoic acid for 72 hours.
Following 72 hours of differentiation, cells were stimulated with 1 μM of a calcium ionophore (A23187) in the presence or absence of test compound or vehicle for 1 hour at 37° C. After this time, supernatant was removed from the cells and the LTB4 levels were determined following manufacturer's instructions, using a Leukotriene B4 EIA kit from Cayman (Cat # 5201 11). The negative controls were media samples from differentiated but un-stimulated cells. The compounds were screened at 5 concentrations in quadruplicate starting at 10 μM.

[2] = system: LTB4 production in human whole blood; experiment: Inhibition of LTB4 Production in Blood; format: cell-based; settings: 1 h, 20 μM A23187, 60 minutes at 37° C., LTB4 in plasma by ELISA, read-out: protection against LTB4 at an EC50
Experimental: • Human whole blood (Na citrate) (Stanford Blood Center) • A23187, (Sigma, Cat# C-7522) • Leukotriene B4 EIA reagents (Cayman Chemical, Cat # 520111) • BWA4C (Sigma, Cat # B7559) Procedure Preparation of A23187:
A23187 was prepared as a 10 mM stock solution in DMSO (aliquots can be stored at −20° C.). On the day of the assay the stock solution was diluted as follows: 70 μL 10 mM stock added to 1.6 mL plasma to give a working concentration of 0.42 mM.
From a 30 mM stock solution in DMSO, test articles were diluted to a working concentration of 600 μM in PBS (i.e. 10 μL stock solution+490 μL PBS). This is the highest concentration (gives a final testing concentration of 30 μM). From this 600 μM solution test articles were serially diluted 1:3 in PBS to give a dose-response curve. 10 μL of each concentration of test article was then added to 4 wells of a 96-well plate (i.e. testing in quadruplicate). A positive control compound, BWA4C was used in every assay.
Human whole blood was added to the plates containing compounds (190 μL per well) and mixed well. The blood was incubated with compound at 37° C. for 15 minutes. Following this incubation, 10 μL of 0.42 mM A23187 was added to each well except the negative control wells to give a final calcium ionophore concentration of 20 μM. The plates were then incubated at 37° C. for 60 minutes. After the incubation period, plates were centrifuged for 15 min at 2000 g at 4° C. in sealed microplate buckets. Plasma was then removed for quantitation of LTB4 levels by ELISA.
LTB4 levels in the plasma were determined using a commercially available ELISA kit from Cayman Chemicals. The ELISA was run according to the manufacturer's instructions. The LTB4 levels in the vehicle control sample were then compared to those in which the test article had been added. From this a percent inhibition of LTB4 production by each concentration of test article was calculated and the IC50 was determined.

[3] = molecular target: T1, human recombinant 5-Lipoxygenase (Homo sapiens, UniProt P09917); experiment: 5-Lipoxygenase Enzyme Assay; format: biochemical; settings: 70 μM arachidonic acid, 10 minute incubation at room temperature, FOX reagent, absorbance at 620 nm; read-out: inhibition of 5-Lipoxygenase with an IC50
T1 sequence (P09917 1-674): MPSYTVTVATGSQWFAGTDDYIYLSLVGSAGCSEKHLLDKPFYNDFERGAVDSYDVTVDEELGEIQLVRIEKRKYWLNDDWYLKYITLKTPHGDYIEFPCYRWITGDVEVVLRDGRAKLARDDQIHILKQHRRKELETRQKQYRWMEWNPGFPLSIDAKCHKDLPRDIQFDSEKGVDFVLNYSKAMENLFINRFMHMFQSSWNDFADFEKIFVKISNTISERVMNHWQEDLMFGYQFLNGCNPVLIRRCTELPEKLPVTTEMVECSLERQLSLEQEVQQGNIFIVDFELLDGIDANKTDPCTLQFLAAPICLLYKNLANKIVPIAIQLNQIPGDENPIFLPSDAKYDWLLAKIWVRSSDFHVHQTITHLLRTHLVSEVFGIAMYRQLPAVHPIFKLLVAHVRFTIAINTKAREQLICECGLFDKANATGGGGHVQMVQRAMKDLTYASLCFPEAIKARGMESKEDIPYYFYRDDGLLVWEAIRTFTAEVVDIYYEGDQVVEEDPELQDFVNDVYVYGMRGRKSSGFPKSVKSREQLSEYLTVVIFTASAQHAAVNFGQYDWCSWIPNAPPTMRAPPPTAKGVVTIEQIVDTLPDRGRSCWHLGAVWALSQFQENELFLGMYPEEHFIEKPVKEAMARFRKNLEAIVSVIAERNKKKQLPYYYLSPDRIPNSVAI
Source text: This procedure was used for measuring the enzymatic activity of human recombinant 5-Lipoxygenase using a colorimetric method based on the ferric oxidation of xylenol orange.
• 96 well flat bottom microfilter plates (VWR, Catalog # 62402-933 9295) • Lipoxygenase screening assay buffer (Cayman, Catalog # 760710) • Human recombinant 5-Lipoxygenase (Cayman, Catalog # 60402) • Arachidonic Acid (Sigma, Catalog # A3555) • Xylenol orange tetra sodium salt (Aldrich, Catalog # 227854) • Iron (II) sulfate heptahydrate (Sigma, Catalog # F7002) • Sulfuric acid (95-98%) [18 M] • Methanol Procedure
Human recombinant 5-Lipoxygenase (Cayman Cat # 60402) was used in this assay. The test compound and/or vehicle was added to 0.5 μL 5-Lipoxygenase in 50 mM Tris-HCl buffer, pH 7.4. The reaction was initiated by addition of 70 μM arachidonic acid in Tris-HCl buffer, pH 7.4, and terminated after a 10 minute incubation at room temperature by addition of FOX reagent (25 mM sulfuric acid, 100 μM xylenol orange, 100 μM iron (II) sulfate, methanol:water 9:1). The yellow color of acidified xylenol orange was converted to a blue color by the lipid hydroperoxide-mediated oxidation of Fe^2+ ions and the interaction of the resulting Fe^3+ ions with the dye. The complex was allowed to form during a 1 hour incubation at room temperature with shaking. Absorbance of the Fe^3+ complex was then measured at […] using a spectrophotometer.
Negative controls contained enzyme during the incubation step but substrate was not added until after the FOX reagent. Compounds were screened at 5 concentrations in triplicate starting at 10 μM

SMILES | EC50 [1] [µM] | EC50 [2] [µM] | IC50 [3] [µM]
Cc1c(O)cc2c(c1C)N(CCCN1C(=O)c3ccccc3C1=O)CC1(CC1)C2 [2-(3-(6′-hydroxy-7′,8′-dimethyl-2′,4′-dihydro-1′H-spiro[cyclopropane-1,3′-quinoline]-1′-yl)propyl)isoindoline-1,3-dione] | < 5 |  | 
Cc1c(C)c2c(c(C)c1OCc1ccc3ccccc3n1)CCC1(CCC1)O2 [2-{[(5,7,8-trimethyl-3,4-dihydrospiro[chromene-2,1′-cyclobutan]-6-yl)oxy]methyl}quinoline] | < 5 |  | 
CC1=Cc2c(C)c(O)c(C)c(C)c2OC12CCC2 [3,5,7,8-tetramethylspiro[chromene-2,1′-cyclobutan]-6-ol] | < 5 | < 10 | 
Cc1c(C)c2c(c(C)c1O)C=C(C(C)O)C1(CCC1)O2 (stereo not drawn) [3-(1-hydroxyethyl)-5,7,8-trimethylspiro[chromene-2,1′-cyclobutan]-6-ol] | < 5 | < 10 | 
Cc1c(C)c2c(c(C)c1O)CC(CO)C1(CCC1)O2 (stereo not drawn) [3-(hydroxymethyl)-5,7,8-trimethyl-3,4-dihydrospiro[chromene-2,1′-cyclobutan]-6-ol] | < 5 | < 10 | 
CONCC1=Cc2c(cc(C)c(OC(=O)C(C)(C)C)c2C)OC12CCC2 [3-[(methoxyamino)methyl]-5,7-dimethylspiro[chromene-2,1′-cyclobutan]-6-yl pivalate] | < 5 |  | 
CCONC1CC2(CCC2)Oc2cc(C)c(O)c(C)c21 (stereo not drawn) [4-(ethoxyamino)-5,7-dimethyl-3,4-dihydrospiro[chromene-2,1′-cyclobutan]-6-ol] | < 5 |  | < 0.3
CCCCCCNC1c2c(C)c(O)c(C)c(C)c2OCC12CCC2 (stereo not drawn) [4-(hexylamino)-5,7,8-trimethylspiro[chroman-3,1′-cyclobutan]-6-ol] | < 5 |  | < 0.3
CON(C)C1CC2(CCC2)Oc2c(C)c(C)c(O)c(C)c21 (stereo not drawn) [4-[methoxy(methyl)amino]-5,7,8-trimethyl-3,4-dihydrospiro[chromene-2,1′-cyclobutan]-6-ol] | < 5 |  | 
Cc1c(C)c2c(c(C)c1O)C(O)CC1(CCC1)O2 (stereo not drawn) [5,7,8-trimethyl-3,4-dihydrospiro[chromene-2,1′-cyclobutane]-4,6-diol] | < 5 |  | 
CCO/N=C1\CC2(CCC2)Oc2cc(CC)c(O)c(CC)c21 [5,7-diethyl-6-hydroxyspiro[chromene-2,1′-cyclobutan]-4(3H)-one O-ethyloxime] | < 5 |  | < 0.3
C=Cc1c(C)c(O)c(C)c2c1OC1(CCC1)CC2 [5,7-dimethyl-8-vinyl-3,4-dihydrospiro[chromene-2,1′-cyclobutan]-6-ol] | < 5 |  | < 0.3
Cc1cc(O)c(Cl)c2c1OC1(CCC1)CC2 [5-chloro-8-methyl-3,4-dihydrospiro[chromene-2,1′-cyclobutan]-6-ol] | < 5 |  | 
CCO/N=C1\CC2(CCC2)Oc2c(C)c(C)c(O)c(CC)c21 [5-ethyl-6-hydroxy-7,8-dimethylspiro[chromene-2,1′-cyclobutan]-4(3H)-one O-ethyloxime] | < 5 |  | < 0.3
CCc1c(O)c(C)c(C)c2c1/C(=N/OC)CC1(CCC1)O2 [5-ethyl-6-hydroxy-7,8-dimethylspiro[chromene-2,1′-cyclobutan]-4(3H)-one O-methyloxime] | < 5 |  | < 0.3
Cc1cc(O)c(C(C)C)c2c1OC1(CCC1)CC2 [5-isopropyl-8-methyl-3,4-dihydrospiro[chromene-2,1′-cyclobutan]-6-ol] | < 5 |  | 
Cc1c(C)c2c(c(C)c1O)C(C#N)=CC1(CCC1)O2 [6-hydroxy-5,7,8-trimethylspiro[chromene-2,1′-cyclobutane]-4-carbonitrile] | < 5 |  | 
Cc1c(C)c2c(c(C)c1O)C(=O)CC1(CCC1)S2 [6′-hydroxy-5′,7′,8′-trimethylspiro[cyclobutane-1,2′-thiochromen]-4′(3′H)-one] | < 5 |  | < 0.3
Cc1c(OC(=O)CN(C)C)cc2c(c1C)OC1(CCC1)CC2 [7,8-dimethyl-3,4-dihydrospiro[chromene-2,1′-cyclobutan]-6-yl (dimethylamino)acetate] | < 5 |  | 
Cc1c2c(c(C)c(Cl)c1OC(=O)CN(C)C)OC1(CCC1)CC2 [7-chloro-5,8-dimethyl-3,4-dihydrospiro[chromene-2,1′-cyclobutan]-6-yl (dimethylamino)acetate] | < 5 |  | < 0.3
Cc1c(O)c(C(C)(C)C)cc2c1C(O)CC1(CCC1)O2 (stereo not drawn) [7-tert-butyl-5-methylspiro[chroman-2,1′-cyclobutane]-4,6-diol] | < 5 |  | 
Cc1cc2c(c(C)c1O)C(NS(=O)(=O)c1ccccc1)CC1(CCC1)O2 (stereo not drawn) [N-(6-hydroxy-5,7-dimethyl-3,4-dihydrospiro[chromene-2,1′-cyclobutan]-4-yl)benzenesulfonamide] | < 5 |  | < 0.3
COC(=O)C1CC(c2c(C)c(O)c(C)c3c2OC2(CCC2)CC3)=NO1 (stereo not drawn) [methyl 3-(6-hydroxy-5,7-dimethyl-3,4-dihydrospiro[chromene-2,1′-cyclobutan]-8-yl)-4,5-dihydroisoxazole-5-carboxylate] | < 5 |  | < 0.3
